Reference: patent publication US20230174530A1, “N-(PHENYLAMINOCARBONYL) TETRAHYDRO-ISOQUINOLINES AND RELATED COMPOUNDS AS MODULATORS OF GPR65” (PATHIOS THERAPEUTICS LIMITED, priority 2020, published 2023)

Biological target: T1, human recombinant GPR65 (Homo sapiens, UniProt Q8IYL9)
T1 construct: host or cells: 1321N1 human astrocytoma cells (1321N1-hrGPR65)
Assay: Human GPR65 cAMP HTRF antagonist assay
Assay type: cell-based
Details: 1321N1-hrGPR65 cells stimulated at assay pH 7.2; suppression of cAMP rise; read-out: hGPR65 IC50
Method: Human GPR65 Cyclic Adenosine Monophosphate (cAMP) Homogeneous Time Resolved Fluorescence (HTRF) Antagonist Assay Procedure
IC50 data was obtained by the following procedure:
1321N1 human astrocytoma cells stably expressing human recombinant GPR65 (1321N1-hrGPR65 cells, EuroscreenFast) were cultured according to the vendor's instructions.
Compounds were tested for their ability to antagonise GPR65, through measuring the concentration of cytoplasmic cAMP following treatment of the cells at a pH of 7.2 to activate GPR65 signalling and addition of the compound to be tested. The extent to which the expected rise in cAMP concentration upon GPR65 activation was suppressed by the added compound is indicative of its potency. The assay was carried out according to EuroscreenFast assay methodology as follows.
On the day of the assay, test compounds were added to 384-well, low volume, white microtiter plates by acoustic dispensing. KRH buffer (5 mM KCl, 1.25 mM MgSO4, 124 mM NaCl, 25 mM HEPES, 13.3 mM Glucose, 1.25 mM KH2PO4 and 1.45 mM CaCl2) was adjusted to pH 6.5, pH 7.6 and pH 8.4 by adding NaOH. 1321N1-hGPR65 cells were rapidly thawed and diluted in KRH, pH 7.6 prior to centrifugation at 300×g for 5 min and resuspension in assay buffer (KRH, pH 7.6, supplemented with 1 mM 3-isobutyl-1-methylxanthine (IBMX) and 200 μM ethylenediaminetetraacetic acid (EDTA)). Cells were added to assay plates at a density of 2,000 cells per well in a volume of 5 μl. Assay plates were briefly centrifuged at 100×g and then incubated at room temperature for 30 min. Cells were stimulated by the addition of 5 μL KRH, pH 6.5, to achieve an assay pH of 7.2, while control wells received 5 μl KRH, pH 8.4 to achieve an assay pH of 7.9. Assay plates were briefly centrifuged at 100×g and then incubated at room temperature for 30 min.
Accumulation of cAMP was detected by cAMP HTRF kit (Cisbio). d2-labeled cAMP and cryptate-labeled anti-cAMP antibody in Lysis and Detection Buffer (Cisbio) were added to assay plates, and the plates were incubated at room temperature for 1 h. HTRF measurements were performed using a Pherastar FSX instrument. Acceptor and donor emission signals were measured at 665 nm and 620 nm, respectively, and HTRF ratios were calculated as signal665 nm/signal620 nm×10^4. Data were normalised to high and low control values and fitted with 4-parameter logistic regression to determine hGPR65 IC50 values for the test compounds, which are shown in Table 1.

T1 sequence (Q8IYL9 whole entry): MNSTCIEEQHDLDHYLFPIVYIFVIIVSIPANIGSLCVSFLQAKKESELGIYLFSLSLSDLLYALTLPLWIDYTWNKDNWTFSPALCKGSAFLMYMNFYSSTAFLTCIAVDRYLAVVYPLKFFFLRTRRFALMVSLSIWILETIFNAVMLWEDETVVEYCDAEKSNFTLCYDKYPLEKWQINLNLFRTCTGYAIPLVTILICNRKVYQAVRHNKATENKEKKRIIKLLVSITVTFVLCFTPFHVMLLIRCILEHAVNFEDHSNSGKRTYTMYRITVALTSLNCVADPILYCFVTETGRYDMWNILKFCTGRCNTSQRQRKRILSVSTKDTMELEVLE

Question: How did the IC50 turn out when `O=C(Nc1ccc(Cl)c(Cl)c1)N1CCc2ncncc2C1` [Compound 1, N-(3,4-Dichlorophenyl)-7,8-dihydropyrido[4,3-d]pyrimidine-6(5H)-carboxamide] was run?
Answer: Its IC50 is 0.5 to 5 µM.

Question: Which IC50 does the source give for `O=C(Nc1ccc(Cl)cc1)N1CCc2ncncc2C1` [Compound 2, N-(4-Chlorophenyl)-7,8-dihydropyrido[4,3-d]pyrimidine-6(5H)-carboxamide] here?
Answer: The IC50 was over 5 µM.

Question: Which IC50 does the source give for `O=C(Nc1cccc(Cl)c1)N1CCc2ncncc2C1` [Compound 3, N-(3-Chlorophenyl)-7,8-dihydropyrido[4,3-d]pyrimidine-6(5H)-carboxamide] here?
Answer: The IC50 was over 5 µM.

Question: How did the IC50 turn out when `O=C(Nc1ccc(C(F)(F)F)cc1)N1CCc2ncncc2C1` [Compound 4, N-(4-(Trifluoromethyl)phenyl)-7,8-dihydropyrido[4,3-d]pyrimidine-6(5H)-carboxamide] was run?
Answer: Its IC50 is over 5 µM.

Question: `O=C(Nc1ccc(Cl)c(C(F)(F)F)c1)N1CCc2ncncc2C1` [Compound 5, N-(4-Chloro-3-(trifluoromethyl)phenyl)-7,8-dihydropyrido[4,3-d]pyrimidine-6(5H)-carboxamide] was tested. Which IC50 did it give?
Answer: Its IC50 is 0.5 to 5 µM.

Question: `O=C(Nc1ccc(C(F)(F)F)c(Cl)c1)N1CCc2ncncc2C1` [Compound 6, N-(3-Chloro-4-(trifluoromethyl)phenyl)-7,8-dihydropyrido[4,3-d]pyrimidine-6(5H)-carboxamide] was tested. Which IC50 did it give?
Answer: The IC50 was 0.5 to 5 µM.

Question: With `O=C(Nc1ccc(Cl)c(C(F)(F)F)c1)N1CCc2cncnc2C1` [Compound 7, N-(4-Chloro-3-(trifluoromethyl)phenyl)-5,8-dihydropyrido[3,4-d]pyrimidine-7(6H)-carboxamide] as the molecule, how does the IC50 read?
Answer: Its IC50 is 0.5 to 5 µM.

Question: `O=C(Nc1ccc(Cl)c(Cl)c1)N1CCc2cncnc2C1` [Compound 8, N-(3,4-Dichlorophenyl)-5,8-dihydropyrido[3,4-d]pyrimidine-7(6H)-carboxamide] was tested. Which IC50 did it give?
Answer: Its IC50 is over 5 µM.

Question: How did the IC50 turn out when `O=C(Nc1ccc(C(F)(F)F)c(Cl)c1)N1CCc2cncnc2C1` [Compound 9, N-(3-Chloro-4-(trifluoromethyl)phenyl)-5,8-dihydropyrido[3,4-d]pyrimidine-7(6H)-carboxamide] was run?
Answer: The IC50 was over 5 µM.

Question: How did the IC50 turn out when `O=C(Nc1ccc(C(F)(F)F)c(Cl)c1)N1CCc2ccccc2C1` [Compound 10, N-(3-Chloro-4-(trifluoromethyl)phenyl)-3,4-dihydroisoquinoline-2(1H)-carboxamide] was run?
Answer: The IC50 was 0.5 to 5 µM.

Question: How did the IC50 turn out when `O=C(Nc1ccc(Cl)c(C(F)(F)F)c1)N1CCc2ccccc2C1` [Compound 11, N-(4-Chloro-3-(trifluoromethyl)phenyl)-3,4-dihydroisoquinoline-2(1H)-carboxamide] was run?
Answer: The IC50 was 0.5 to 5 µM.

Question: With `O=C(Nc1ccc(Cl)c(Cl)c1)N1CCc2cnccc2C1` [Compound 12, N-(3,4-Dichlorophenyl)-3,4-dihydro-2,6-naphthyridine-2(1H)-carboxamide] as the molecule, how does the IC50 read?
Answer: Its IC50 is 0.5 to 5 µM.

Question: With `O=C(Nc1ccc(Cl)c(C(F)(F)F)c1)N1CCc2cnccc2C1` [Compound 13, N-(4-Chloro-3-(trifluoromethyl)phenyl)-3,4-dihydro-2,6-naphthyridine-2(1H)-carboxamide] as the molecule, how does the IC50 read?
Answer: Its IC50 is 0.5 to 5 µM.

Question: With `O=C(Nc1ccc(C(F)(F)F)c(Cl)c1)N1CCc2cnccc2C1` [Compound 14, N-(3-Chloro-4-(trifluoromethyl)phenyl)-3,4-dihydro-2,6-naphthyridine-2(1H)-carboxamide] as the molecule, how does the IC50 read?
Answer: Its IC50 is under 0.5 µM.

Question: How did the IC50 turn out when `O=C(Nc1ccc(Cl)c(Cl)c1)N1CCc2ccncc2C1` [Compound 15, N-(3,4-Dichlorophenyl)-3,4-dihydro-2,7-naphthyridine-2(1H)-carboxamide] was run?
Answer: Its IC50 is 0.5 to 5 µM.

Question: `O=C(Nc1ccc(Cl)c(C(F)(F)F)c1)N1CCc2ccncc2C1` [Compound 16, N-(4-Chloro-3-(trifluoromethyl)phenyl)-3,4-dihydro-2,7-naphthyridine-2(1H)-carboxamide] was tested. Which IC50 did it give?
Answer: Its IC50 is 0.5 to 5 µM.

Question: For `O=C(Nc1ccc(C(F)(F)F)c(Cl)c1)N1CCc2ccncc2C1` [Compound 17, N-(3-Chloro-4-(trifluoromethyl)phenyl)-3,4-dihydro-2,7-naphthyridine-2(1H)-carboxamide], which IC50 is on record?
Answer: The IC50 was 0.5 to 5 µM.

Question: `O=C(Nc1ccc(Cl)c(Cl)c1)N1CCc2cccnc2C1` [Compound 18, N-(3,4-Dichlorophenyl)-5,8-dihydro-1,7-naphthyridine-7(6H)-carboxamide] was tested. Which IC50 did it give?
Answer: Its IC50 is over 5 µM.

Question: Which IC50 does the source give for `O=C(Nc1ccc(C(F)(F)F)c(Cl)c1)N1CCc2cccnc2C1` [Compound 19, N-(3-Chloro-4-(trifluoromethyl)phenyl)-5,8-dihydro-1,7-naphthyridine-7(6H)-carboxamide] here?
Answer: Its IC50 is 0.5 to 5 µM.

Question: For `O=C(Nc1ccc(Cl)c(Cl)c1)N1CCc2ncccc2C1` [Compound 20, N-(3,4-Dichlorophenyl)-7,8-dihydro-1,6-naphthyridine-6(5H)-carboxamide], which IC50 is on record?
Answer: The IC50 was over 5 µM.

Question: `O=C(Nc1ccc(Cl)c(C(F)(F)F)c1)N1CCc2ncccc2C1` [Compound 21, N-(4-Chloro-3-(trifluoromethyl)phenyl)-7,8-dihydro-1,6-naphthyridine-6(5H)-carboxamide] was tested. Which IC50 did it give?
Answer: Its IC50 is over 5 µM.

Question: Which IC50 does the source give for `O=C(Nc1ccc(C(F)(F)F)c(Cl)c1)N1CCc2ncccc2C1` [Compound 22, N-(3-Chloro-4-(trifluoromethyl)phenyl)-7,8-dihydro-1,6-naphthyridine-6(5H)-carboxamide] here?
Answer: The IC50 was over 5 µM.

Question: `O=C(Nc1ccc(Cl)c(Cl)c1)N1CCc2nccnc2C1` [Compound 23, N-(3,4-Dichlorophenyl)-7,8-dihydropyrido[3,4-b]pyrazine-6(5H)-carboxamide] was tested. Which IC50 did it give?
Answer: The IC50 was over 5 µM.

Question: Which IC50 does the source give for `O=C(Nc1ccc(C(F)(F)F)c(Cl)c1)N1CCc2nccnc2C1` [Compound 24, N-(3-Chloro-4-(trifluoromethyl)phenyl)-7,8-dihydropyrido[3,4-b]pyrazine-6(5H)-carboxamide] here?
Answer: Its IC50 is over 5 µM.

Question: For `O=C(Nc1ccc(Cl)c(C(F)(F)F)c1)N1CCc2oncc2C1` [Compound 25, N-(4-Chloro-3-(trifluoromethyl)phenyl)-6,7-dihydroisoxazolo[4,5-c]pyridine-5(4H)-carboxamide], which IC50 is on record?
Answer: The IC50 was 0.5 to 5 µM.

Question: How did the IC50 turn out when `O=C(Nc1ccc(C(F)(F)F)c(Cl)c1)N1CCc2oncc2C1` [Compound 26, N-(3-Chloro-4-(trifluoromethyl)phenyl)-6,7-dihydroisoxazolo[4,5-c]pyridine-5(4H)-carboxamide] was run?
Answer: Its IC50 is 0.5 to 5 µM.

Question: How did the IC50 turn out when `Cc1cccc2c1CN(C(=O)Nc1ccc(Cl)c(Cl)c1)CC2` [Compound 27, N-(3,4-Dichlorophenyl)-8-methyl-3,4-dihydroisoquinoline-2(1H)-carboxamide] was run?
Answer: The IC50 was 0.5 to 5 µM.

Question: How did the IC50 turn out when `Cc1cccc2c1CN(C(=O)Nc1ccc(Cl)c(C(F)(F)F)c1)CC2` [Compound 28, N-(4-Chloro-3-(trifluoromethyl)phenyl)-8-methyl-3,4-dihydroisoquinoline-2(1H)-carboxamide] was run?
Answer: The IC50 was over 5 µM.

Question: With `Cc1cccc2c1CN(C(=O)Nc1ccc(C(F)(F)F)c(Cl)c1)CC2` [Compound 29, N-(3-Chloro-4-(trifluoromethyl)phenyl)-8-methyl-3,4-dihydroisoquinoline-2(1H)-carboxamide] as the molecule, how does the IC50 read?
Answer: Its IC50 is 0.5 to 5 µM.

Question: With `O=C(Nc1ccc(C(F)(F)F)c(Cl)c1)N1CCc2ccc(Cl)cc2C1` [Compound 30, 7-Chloro-N-(3-chloro-4-(trifluoromethyl)phenyl)-3,4-dihydroisoquinoline-2(1H)-carboxamide] as the molecule, how does the IC50 read?
Answer: Its IC50 is under 0.5 µM.

Question: Which IC50 does the source give for `O=C(Nc1ccc(Cl)c(Cl)c1)N1CCc2ccc(F)cc2C1` [Compound 31, N-(3,4-Dichlorophenyl)-7-fluoro-3,4-dihydroisoquinoline-2(1H)-carboxamide] here?
Answer: Its IC50 is under 0.5 µM.

Question: `O=C(Nc1ccc(Cl)c(C(F)(F)F)c1)N1CCc2ccc(F)cc2C1` [Compound 32, N-(4-Chloro-3-(trifluoromethyl)phenyl)-7-fluoro-3,4-dihydroisoquinoline-2(1H)-carboxamide] was tested. Which IC50 did it give?
Answer: Its IC50 is 0.5 to 5 µM.
